Measurements: ChEMBL document CHEMBL3991601, “The target landscape of clinical kinase drugs” (Science, 2017)
The source made the active and inactive calls. For most assays here, no stated cut-off is given here; in the data, actives have a measured Kd and inactives only a lower limit.

Experiments:
[1] = molecular target: T1, Phosphatidylinositol 5-phosphate 4-kinase type-2 alpha (Homo sapiens, UniProt P48426)
T1 sequence (P48426 whole entry): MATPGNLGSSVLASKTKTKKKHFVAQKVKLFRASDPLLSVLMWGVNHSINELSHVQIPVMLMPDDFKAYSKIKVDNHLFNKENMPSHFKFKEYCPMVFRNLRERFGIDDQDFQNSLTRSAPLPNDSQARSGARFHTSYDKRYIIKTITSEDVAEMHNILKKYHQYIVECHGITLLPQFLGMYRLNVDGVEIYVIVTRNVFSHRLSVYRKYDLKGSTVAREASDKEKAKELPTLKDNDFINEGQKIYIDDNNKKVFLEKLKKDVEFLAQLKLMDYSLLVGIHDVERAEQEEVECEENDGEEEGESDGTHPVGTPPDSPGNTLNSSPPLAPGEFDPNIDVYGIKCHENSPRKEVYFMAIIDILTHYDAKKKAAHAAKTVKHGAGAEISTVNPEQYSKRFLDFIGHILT

[2] = molecular target: Calcium/calmodulin-dependent protein kinase kinase 2 (Homo sapiens, UniProt Q96RR4)
Calcium/calmodulin-dependent protein kinase kinase 2, sequence (Q96RR4 whole entry): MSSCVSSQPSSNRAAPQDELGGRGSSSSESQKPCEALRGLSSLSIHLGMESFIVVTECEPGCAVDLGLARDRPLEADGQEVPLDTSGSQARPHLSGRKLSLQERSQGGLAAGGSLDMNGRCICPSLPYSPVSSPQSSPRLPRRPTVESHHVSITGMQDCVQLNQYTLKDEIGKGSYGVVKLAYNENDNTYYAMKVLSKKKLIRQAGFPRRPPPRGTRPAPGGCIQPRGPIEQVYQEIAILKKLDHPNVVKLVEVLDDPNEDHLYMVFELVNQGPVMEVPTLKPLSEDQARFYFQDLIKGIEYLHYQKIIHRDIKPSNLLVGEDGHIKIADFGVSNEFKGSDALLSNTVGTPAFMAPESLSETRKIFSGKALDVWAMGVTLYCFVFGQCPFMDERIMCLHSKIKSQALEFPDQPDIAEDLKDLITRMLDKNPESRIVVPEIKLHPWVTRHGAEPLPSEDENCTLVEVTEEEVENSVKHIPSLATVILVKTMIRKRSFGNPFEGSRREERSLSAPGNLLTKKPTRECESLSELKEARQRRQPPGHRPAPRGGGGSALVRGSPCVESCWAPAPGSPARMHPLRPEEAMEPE

[3] = molecular target: T2, Cytochrome c1, heme protein, mitochondrial (Homo sapiens, UniProt P08574)
T2 sequence (P08574 whole entry): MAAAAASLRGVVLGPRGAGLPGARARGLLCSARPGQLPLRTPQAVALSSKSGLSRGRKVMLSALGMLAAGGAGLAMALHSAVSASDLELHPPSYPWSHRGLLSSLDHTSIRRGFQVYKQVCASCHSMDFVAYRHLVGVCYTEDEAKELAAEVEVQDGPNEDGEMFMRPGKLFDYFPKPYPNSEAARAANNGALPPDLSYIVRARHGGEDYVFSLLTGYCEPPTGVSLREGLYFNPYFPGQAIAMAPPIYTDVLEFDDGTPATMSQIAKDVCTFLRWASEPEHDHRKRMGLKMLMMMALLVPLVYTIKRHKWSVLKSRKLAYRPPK

[4] = molecular target: Rho-associated protein kinase 2 (Homo sapiens, UniProt O75116)
[5] = molecular target: Casein kinase I isoform delta (Homo sapiens, UniProt P48730)
Casein kinase I isoform delta, sequence (P48730 whole entry, canonical isoform): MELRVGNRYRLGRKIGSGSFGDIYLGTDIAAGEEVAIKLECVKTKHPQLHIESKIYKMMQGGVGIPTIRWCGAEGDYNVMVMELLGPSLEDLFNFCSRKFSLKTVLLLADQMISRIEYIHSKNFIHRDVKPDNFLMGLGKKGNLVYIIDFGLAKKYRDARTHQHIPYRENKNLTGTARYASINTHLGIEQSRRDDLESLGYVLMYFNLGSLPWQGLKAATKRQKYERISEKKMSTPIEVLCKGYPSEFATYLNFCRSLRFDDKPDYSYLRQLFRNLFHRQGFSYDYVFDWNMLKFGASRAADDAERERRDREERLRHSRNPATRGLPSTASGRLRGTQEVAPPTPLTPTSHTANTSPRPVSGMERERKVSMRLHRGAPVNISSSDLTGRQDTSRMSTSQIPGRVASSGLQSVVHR

[6] = molecular target: Dual specificity protein kinase CLK1 (Homo sapiens, UniProt P49759)
Dual specificity protein kinase CLK1, sequence (P49759 whole entry): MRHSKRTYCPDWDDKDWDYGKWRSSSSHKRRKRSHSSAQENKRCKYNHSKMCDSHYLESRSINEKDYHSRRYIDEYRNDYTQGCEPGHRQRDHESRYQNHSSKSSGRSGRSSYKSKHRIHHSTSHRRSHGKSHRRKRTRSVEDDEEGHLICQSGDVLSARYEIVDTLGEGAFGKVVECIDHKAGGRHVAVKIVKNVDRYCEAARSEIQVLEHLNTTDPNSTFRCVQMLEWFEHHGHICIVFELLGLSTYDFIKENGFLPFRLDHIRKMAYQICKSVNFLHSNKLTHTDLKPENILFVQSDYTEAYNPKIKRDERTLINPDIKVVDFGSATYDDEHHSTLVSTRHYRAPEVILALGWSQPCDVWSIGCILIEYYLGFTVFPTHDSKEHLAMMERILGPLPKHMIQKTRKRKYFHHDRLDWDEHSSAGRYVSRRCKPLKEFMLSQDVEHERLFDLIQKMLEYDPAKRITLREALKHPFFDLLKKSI

[7] = molecular target: Glycogen synthase kinase-3 alpha (Homo sapiens, UniProt P49840)
[8] = molecular target: Mitogen-activated protein kinase kinase kinase kinase 4 (Homo sapiens, UniProt O95819)
Mitogen-activated protein kinase kinase kinase kinase 4, sequence (O95819 whole entry): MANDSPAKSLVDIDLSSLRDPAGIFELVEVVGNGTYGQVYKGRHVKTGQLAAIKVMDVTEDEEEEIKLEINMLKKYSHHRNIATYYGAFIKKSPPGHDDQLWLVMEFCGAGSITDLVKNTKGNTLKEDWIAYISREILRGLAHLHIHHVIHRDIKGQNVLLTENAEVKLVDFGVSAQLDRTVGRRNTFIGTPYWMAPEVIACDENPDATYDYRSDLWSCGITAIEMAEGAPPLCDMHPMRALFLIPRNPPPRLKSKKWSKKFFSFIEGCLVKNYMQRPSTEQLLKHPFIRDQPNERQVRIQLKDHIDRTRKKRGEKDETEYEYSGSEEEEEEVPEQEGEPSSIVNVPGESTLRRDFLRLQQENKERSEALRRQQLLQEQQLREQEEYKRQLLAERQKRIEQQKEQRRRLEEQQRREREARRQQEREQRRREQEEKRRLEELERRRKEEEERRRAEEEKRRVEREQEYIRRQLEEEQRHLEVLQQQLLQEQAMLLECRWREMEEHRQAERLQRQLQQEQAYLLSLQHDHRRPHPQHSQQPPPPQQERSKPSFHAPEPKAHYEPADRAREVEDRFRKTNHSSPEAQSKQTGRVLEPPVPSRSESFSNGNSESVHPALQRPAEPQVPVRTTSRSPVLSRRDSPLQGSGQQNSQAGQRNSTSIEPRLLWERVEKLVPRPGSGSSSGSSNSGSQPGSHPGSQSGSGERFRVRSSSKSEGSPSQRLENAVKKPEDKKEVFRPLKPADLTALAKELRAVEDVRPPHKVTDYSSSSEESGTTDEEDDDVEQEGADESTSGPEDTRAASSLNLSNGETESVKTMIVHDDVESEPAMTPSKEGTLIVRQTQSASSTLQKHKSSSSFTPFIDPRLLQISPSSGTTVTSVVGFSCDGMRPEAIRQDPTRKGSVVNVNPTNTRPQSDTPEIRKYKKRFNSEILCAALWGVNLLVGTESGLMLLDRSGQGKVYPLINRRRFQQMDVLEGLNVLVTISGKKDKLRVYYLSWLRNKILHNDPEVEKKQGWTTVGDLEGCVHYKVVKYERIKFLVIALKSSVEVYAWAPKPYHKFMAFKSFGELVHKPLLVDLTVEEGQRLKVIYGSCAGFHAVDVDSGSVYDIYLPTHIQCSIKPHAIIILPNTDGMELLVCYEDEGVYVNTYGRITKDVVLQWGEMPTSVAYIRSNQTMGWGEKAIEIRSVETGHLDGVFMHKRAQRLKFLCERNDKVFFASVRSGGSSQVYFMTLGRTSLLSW

[9] = molecular target: Mitogen-activated protein kinase 14 (Homo sapiens, UniProt Q16539)
dCTP pyrophosphatase 1 = molecular target: T3, dCTP pyrophosphatase 1 (Homo sapiens, UniProt Q9H773)
T3 sequence (Q9H773 whole entry): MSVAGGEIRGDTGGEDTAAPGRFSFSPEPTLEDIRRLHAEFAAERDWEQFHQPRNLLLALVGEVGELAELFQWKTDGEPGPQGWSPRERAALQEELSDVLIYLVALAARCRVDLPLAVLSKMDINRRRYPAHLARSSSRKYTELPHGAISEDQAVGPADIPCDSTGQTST

[10] = molecular target: Mitogen-activated protein kinase kinase kinase 4 (Homo sapiens, UniProt Q9Y6R4)
Mitogen-activated protein kinase kinase kinase 4, sequence (Q9Y6R4 whole entry): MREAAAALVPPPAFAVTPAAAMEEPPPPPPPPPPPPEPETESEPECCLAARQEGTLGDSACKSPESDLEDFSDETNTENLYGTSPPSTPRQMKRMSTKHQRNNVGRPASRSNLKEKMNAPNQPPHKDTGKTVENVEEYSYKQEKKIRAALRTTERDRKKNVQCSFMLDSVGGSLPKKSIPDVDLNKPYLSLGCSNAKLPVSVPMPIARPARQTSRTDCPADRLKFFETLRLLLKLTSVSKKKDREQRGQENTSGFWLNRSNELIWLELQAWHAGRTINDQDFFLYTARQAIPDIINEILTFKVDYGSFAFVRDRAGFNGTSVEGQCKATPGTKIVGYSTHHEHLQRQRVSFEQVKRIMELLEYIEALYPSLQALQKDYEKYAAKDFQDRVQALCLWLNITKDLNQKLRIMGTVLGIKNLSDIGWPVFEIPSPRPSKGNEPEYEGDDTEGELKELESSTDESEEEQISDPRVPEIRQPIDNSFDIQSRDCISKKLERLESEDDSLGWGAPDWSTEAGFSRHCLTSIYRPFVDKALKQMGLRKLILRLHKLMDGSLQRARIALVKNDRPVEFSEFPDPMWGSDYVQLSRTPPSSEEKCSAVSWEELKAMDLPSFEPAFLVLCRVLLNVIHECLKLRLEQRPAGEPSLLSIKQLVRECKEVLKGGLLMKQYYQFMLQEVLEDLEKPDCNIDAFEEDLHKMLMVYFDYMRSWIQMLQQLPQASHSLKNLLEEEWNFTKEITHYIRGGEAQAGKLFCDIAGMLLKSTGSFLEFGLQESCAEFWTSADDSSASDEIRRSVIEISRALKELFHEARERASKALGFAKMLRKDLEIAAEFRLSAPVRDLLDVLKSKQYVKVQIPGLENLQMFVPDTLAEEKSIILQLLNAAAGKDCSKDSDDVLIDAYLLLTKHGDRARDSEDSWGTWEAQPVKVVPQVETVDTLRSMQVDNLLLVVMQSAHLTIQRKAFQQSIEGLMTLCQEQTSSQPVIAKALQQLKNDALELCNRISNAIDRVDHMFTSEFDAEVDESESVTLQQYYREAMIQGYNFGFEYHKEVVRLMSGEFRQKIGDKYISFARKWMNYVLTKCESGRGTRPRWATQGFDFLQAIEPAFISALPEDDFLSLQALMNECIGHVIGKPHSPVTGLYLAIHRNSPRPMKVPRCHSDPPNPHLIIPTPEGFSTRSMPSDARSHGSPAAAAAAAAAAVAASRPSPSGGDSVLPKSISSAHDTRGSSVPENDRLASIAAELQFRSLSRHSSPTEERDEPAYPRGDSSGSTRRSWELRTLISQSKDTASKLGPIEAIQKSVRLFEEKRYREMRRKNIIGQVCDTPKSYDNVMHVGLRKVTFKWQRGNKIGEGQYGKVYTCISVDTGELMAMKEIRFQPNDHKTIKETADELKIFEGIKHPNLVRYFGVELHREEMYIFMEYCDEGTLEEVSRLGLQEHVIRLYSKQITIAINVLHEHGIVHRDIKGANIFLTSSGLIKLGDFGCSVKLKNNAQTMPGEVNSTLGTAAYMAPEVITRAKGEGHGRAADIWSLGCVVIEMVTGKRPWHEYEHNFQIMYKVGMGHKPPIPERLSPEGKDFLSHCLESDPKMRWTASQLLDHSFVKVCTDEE

[11] = molecular target: T4, Mitogen-activated protein kinase kinase kinase 2 (Homo sapiens, UniProt Q9Y2U5)
T4 sequence (Q9Y2U5 whole entry): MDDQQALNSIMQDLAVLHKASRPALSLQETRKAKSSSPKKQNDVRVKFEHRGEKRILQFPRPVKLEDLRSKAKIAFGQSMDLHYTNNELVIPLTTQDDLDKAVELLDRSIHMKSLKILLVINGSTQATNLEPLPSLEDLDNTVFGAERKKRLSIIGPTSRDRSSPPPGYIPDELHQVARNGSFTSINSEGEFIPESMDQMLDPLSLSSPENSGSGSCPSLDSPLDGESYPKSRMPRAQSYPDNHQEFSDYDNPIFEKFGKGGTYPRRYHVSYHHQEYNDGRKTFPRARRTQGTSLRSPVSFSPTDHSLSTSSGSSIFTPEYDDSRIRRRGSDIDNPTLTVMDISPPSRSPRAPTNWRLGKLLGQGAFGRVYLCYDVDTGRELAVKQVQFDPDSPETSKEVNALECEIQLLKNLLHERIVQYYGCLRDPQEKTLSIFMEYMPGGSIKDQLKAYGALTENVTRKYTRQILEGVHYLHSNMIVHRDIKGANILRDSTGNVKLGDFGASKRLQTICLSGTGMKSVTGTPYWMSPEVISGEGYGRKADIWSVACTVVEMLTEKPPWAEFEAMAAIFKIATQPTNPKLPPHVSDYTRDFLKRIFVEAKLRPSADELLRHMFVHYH

[12] = molecular target: 26S proteasome regulatory subunit 6B (Homo sapiens, UniProt P43686)
26S proteasome regulatory subunit 6B, sequence (P43686 whole entry): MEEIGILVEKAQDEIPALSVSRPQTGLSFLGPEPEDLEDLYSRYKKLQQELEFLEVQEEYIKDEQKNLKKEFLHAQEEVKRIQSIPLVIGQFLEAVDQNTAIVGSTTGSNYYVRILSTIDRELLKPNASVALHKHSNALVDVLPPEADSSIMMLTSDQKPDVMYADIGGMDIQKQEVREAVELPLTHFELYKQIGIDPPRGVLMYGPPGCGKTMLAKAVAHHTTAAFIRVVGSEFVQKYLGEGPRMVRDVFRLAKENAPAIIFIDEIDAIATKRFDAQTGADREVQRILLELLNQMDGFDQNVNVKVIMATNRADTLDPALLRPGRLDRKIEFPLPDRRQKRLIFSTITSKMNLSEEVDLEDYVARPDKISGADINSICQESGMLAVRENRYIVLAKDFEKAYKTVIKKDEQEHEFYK

[13] = molecular target: cAMP-dependent protein kinase catalytic subunit beta (Homo sapiens, UniProt P22694)
[14] = molecular target: Serine/threonine-protein kinase/endoribonuclease IRE1 (Homo sapiens, UniProt O75460)

Row | Structure (SMILES) | Kd [1] | Kd [2] | Kd [3] | Kd [4] | Kd [5] | Kd [6] | Kd [7] | Kd [8] | Kd [9] | Kd (dCTP pyrophosphatase 1) | Kd [10] | Kd [11] | Kd [12] | Kd [13] | Kd [14]
1 | CN1CCN(CCOc2cc(OC3CCOCC3)c3c(Nc4c(Cl)ccc5c4OCO5)ncnc3c2)CC1 [SARACATINIB] | > 30 µM (inactive) | > 30 µM (inactive) | > 30 µM (inactive) | > 30 µM (inactive) | > 30 µM (inactive) | > 30 µM (inactive) | > 30 µM (inactive) | 1.12 µM (active) | > 30 µM (inactive) | > 30 µM (inactive) | > 30 µM (inactive) | > 30 µM (inactive) | > 30 µM (inactive) | > 30 µM (inactive) | > 30 µM (inactive)
2 | COc1cc2c(Nc3ccc(Cl)c(Cl)c3F)ncnc2cc1OC[C@@H]1C[C@@H]2CN(C)C[C@@H]2C1 [TESEVATINIB] | > 30 µM (inactive) | > 30 µM (inactive) | > 30 µM (inactive) | > 30 µM (inactive) | > 30 µM (inactive) | > 30 µM (inactive) | > 30 µM (inactive) | 1.91 µM (active) | > 30 µM (inactive) | > 30 µM (inactive) | > 30 µM (inactive) | > 30 µM (inactive) | > 30 µM (inactive) | > 30 µM (inactive) | > 30 µM (inactive)
3 | CO[C@H]1C[C@@H]2CC[C@@H](C)[C@@](O)(O2)C(=O)C(=O)N2CCCC[C@H]2C(=O)O[C@H]([C@H](C)C[C@@H]2CC[C@@H](OC(=O)C(C)(CO)CO)[C@H](OC)C2)CC(=O)[C@H](C)/C=C(\C)[C@@H](O)[C@@H](OC)C(=O)[C@H](C)C[C@H](C)/C=C/C=C/C=C/1C [TEMSIROLIMUS] | > 30 µM (inactive) | > 30 µM (inactive) | > 30 µM (inactive) | > 30 µM (inactive) | > 30 µM (inactive) | > 30 µM (inactive) | > 30 µM (inactive) | > 30 µM (inactive) | > 30 µM (inactive) | > 30 µM (inactive) | > 30 µM (inactive) | > 30 µM (inactive) | > 30 µM (inactive) | > 30 µM (inactive) | > 30 µM (inactive)
4 | Cn1cnc2c(F)c(Nc3ccc(Br)cc3F)c(C(=O)NOCCO)cc21 [BINIMETINIB] | > 30 µM (inactive) | > 30 µM (inactive) | > 30 µM (inactive) | > 30 µM (inactive) | > 30 µM (inactive) | > 30 µM (inactive) | > 30 µM (inactive) | > 30 µM (inactive) | > 30 µM (inactive) | > 30 µM (inactive) | > 30 µM (inactive) | > 30 µM (inactive) | > 30 µM (inactive) | > 30 µM (inactive) | > 30 µM (inactive)
5 | COc1c(OCCCN2CCOCC2)ccc2c1N=C(NC(=O)c1cnc(N)nc1)N1CCN=C21 [COPANLISIB] | > 30 µM (inactive) | > 30 µM (inactive) | > 30 µM (inactive) | > 30 µM (inactive) | > 30 µM (inactive) | > 30 µM (inactive) | > 30 µM (inactive) | > 30 µM (inactive) | > 30 µM (inactive) | > 30 µM (inactive) | > 30 µM (inactive) | > 30 µM (inactive) | > 30 µM (inactive) | > 30 µM (inactive) | > 30 µM (inactive)
6 | O=c1[nH]ccc2cc(OC3CCNCC3)ccc12 [SAR-407899 FREE BASE] | > 30 µM (inactive) | > 30 µM (inactive) | > 30 µM (inactive) | 0.016 µM (active) | > 30 µM (inactive) | > 30 µM (inactive) | > 30 µM (inactive) | > 30 µM (inactive) | > 30 µM (inactive) | > 30 µM (inactive) | > 30 µM (inactive) | > 30 µM (inactive) | > 30 µM (inactive) | > 30 µM (inactive) | > 30 µM (inactive)
7 | C[C@@H](NC(=O)c1ncnc(N)c1Cl)c1ncc(C(=O)Nc2cc(C(F)(F)F)c(Cl)cn2)s1 [TOVORAFENIB] | > 30 µM (inactive) | > 30 µM (inactive) | > 30 µM (inactive) | > 30 µM (inactive) | > 30 µM (inactive) | 0.942 µM (active) | > 30 µM (inactive) | > 30 µM (inactive) | 0.358 µM (active) | > 30 µM (inactive) | > 30 µM (inactive) | > 30 µM (inactive) | > 30 µM (inactive) | > 30 µM (inactive) | > 30 µM (inactive)

Results, then the compound that gave them:

Row | Kd [1] | Kd [2] | Kd [3] | Kd [4] | Kd [5] | Kd [6] | Kd [7] | Kd [8] | Kd [9] | Kd (dCTP pyrophosphatase 1) | Kd [10] | Kd [11] | Kd [12] | Kd [13] | Kd [14] | Structure (SMILES)
8 | > 30 µM (inactive) | > 30 µM (inactive) | > 30 µM (inactive) | > 30 µM (inactive) | > 30 µM (inactive) | > 30 µM (inactive) | > 30 µM (inactive) | > 30 µM (inactive) | > 30 µM (inactive) | > 30 µM (inactive) | > 30 µM (inactive) | > 30 µM (inactive) | > 30 µM (inactive) | > 30 µM (inactive) | > 30 µM (inactive) | C=CC(=O)N1CCC[C@H](n2c(=O)n(-c3ccc(Oc4ccccc4)cc3)c3c(N)ncnc32)C1
9 | > 30 µM (inactive) | > 30 µM (inactive) | > 30 µM (inactive) | > 30 µM (inactive) | > 30 µM (inactive) | > 30 µM (inactive) | > 30 µM (inactive) | > 30 µM (inactive) | > 30 µM (inactive) | > 30 µM (inactive) | > 30 µM (inactive) | > 30 µM (inactive) | > 30 µM (inactive) | > 30 µM (inactive) | > 30 µM (inactive) | COc1ccc(S(=O)(=O)N(C(C)=O)c2ccccc2/C=C/c2cc[n+]([O-])cc2)cc1 [HMN-214]
10 | > 30 µM (inactive) | > 30 µM (inactive) | > 30 µM (inactive) | > 30 µM (inactive) | > 30 µM (inactive) | > 30 µM (inactive) | > 30 µM (inactive) | > 30 µM (inactive) | > 30 µM (inactive) | > 30 µM (inactive) | > 30 µM (inactive) | > 30 µM (inactive) | > 30 µM (inactive) | > 30 µM (inactive) | > 30 µM (inactive) | CNC(=O)c1cccc2cc(Oc3ccnc4cc(OCC5(N)CC5)c(OC)cc34)ccc12 [LUCITANIB]
11 | > 30 µM (inactive) | > 30 µM (inactive) | > 30 µM (inactive) | > 30 µM (inactive) | > 30 µM (inactive) | > 30 µM (inactive) | > 30 µM (inactive) | > 30 µM (inactive) | > 30 µM (inactive) | > 30 µM (inactive) | > 30 µM (inactive) | > 30 µM (inactive) | > 30 µM (inactive) | > 30 µM (inactive) | > 30 µM (inactive) | C=CC(=O)Nc1cc2c(Nc3ccc(F)c(Cl)c3)ncnc2cc1C#CC(C)(C)N1CCN(C)CC1 [AV-412 FREE BASE]
